Measurements reported in patent USRE46907E1, “Suppression of cancer growth and metastasis using nordihydroguaiaretic acid derivatives with metabolic modulators” (THE JOHNS HOPKINS UNIVERSITY, priority 2008, dated 2018).
Peptide text beside a SMILES is read from it. * marks the point of attachment. Cbz = O=C(OCc1ccccc1)*; CH2F = FC*

Legend:
PKCδ [1] = assay: Immunocytochemistry of PKCδ cellular localization in 4T1 cells; type: cell-based, mouse; details: 4T1, 5 hrs; for nuclear staining for phosphor-PKCδ (Thr505): without Desferoxamine co-treatment
Description: (§1) Immunocytocheimstry: Cells were cultured on glass cover slips coated with poly-L-ornithine (Sigma, Saint Louis, Mo.). At 5 hrs after treatment with drugs, the cells were fixed with 10% formaldehyde in diluted in PBS (−) and washed with PBS (−) three times. After permeabilized by 0.2% Tryton X-100 and 1% goat serum diluted in PBS (−), the cells were blocked by PBS (−) containing 5% goat serum. The cells were then incubated with primary antibodies diluted in PBS (−) containing 0.5% bovine serum albumin (BSA), and with secondary antibodies, which is either anti-IgG conjugated with fluorescein (Vector Laboratories. Burlingame, Calif.), diluted in PBS (−) containing 0.5% BSA. The cells were observed through Zeiss fluorescent microscope (Carl Zeiss, Thornwood, N.Y.).

[2] = test system: PDK-1/Akt pathway-related proteins; assay: Western blotting of PDK-1/Akt pathway-related proteins in 4T1 cells; type: cell-based, mouse; details: 4T1, 5 hrs after treatment, M4N 80 μM, Desferoxamine 75 or 150 μM
Description: (§2) Western blotting: After cells had been grown in 25 mm^2 flasks and treated with reagents, the cells were washed with PBS (−) three times and suspended in RIP A buffer (150 mM NaCl, 50 mM Tris-HCl (pH 8,0), 0.1% SDS, 1% NP40, and 0.5% deoxycholate) supplemented with protease inhibitor cocktail (Calbiochem, San Diego, Calif.). The sample volumes were adjusted by the total protein amount. Protein assay was performed by Bio-Rad Protein Assay (Bio-Rad Laboratories, Inc. Hercules, Calif.). The samples were resolved by the standard SDS-polyacrylamide gel electrophoresis and transferred to nitrocellulose membrane (Amersham Biosciences, Bjorkgatan, Sweden). The membranes were blocked with skim milk, and incubated with primary antibodies at 4° C. overnight and then with secondary antibody conjugated with horse radish peroxidase at room temperature for 2 hrs. The signals were detected by western blot chemiluminescence reagent plus (New England Nuclear Life Science Products, Boston, Mass.).

4T1 cells [3] = assay: TUNEL apoptosis assay in 4T1 cells; type: cell-based, mouse
Description: (§3) Cell Culture Either cell line 4T1 or 67NR was a gift from Dr. Miller (20). The cells were cultured in RPMI1640 medium supplemented with glucose (14 mM), pyruvate (1 mM), penicillin (100 units/ml), streptomycin (100 μg/ml), and fetal bovine serum (10%), buffered with 25 mM HEPES (pH 7.4). LNCaP human prostate cancer cell line was purchased from American Type Culture Collection (Manassas, Va.). The cell line was cultured in RPMI1640 medium supplemented with glucose (14 mM), pyruvate (1 mM), penicillin (100 units/ml), streptomycin (100 μg/ml), and fetal bovine serum (10%). Drugs were dissolved in dimethyl sulfoxide (DMSO) at a suitable concentration so that the final concentration of DMSO in the medium was less than 0.1%.
(§4) Apoptosis assay: Simple TLTNEL assay was conducted by using TUNEL apoptosis detection kit (Upstate, Temecula, Calif.) with some modification. For the evaluation of the effect of PKCδ wild type and dominant negative vectors on TUNEL-positive cell death, we first transfected 4T1 or 67NR cells with these vectors by effectene (Qiagen, Valencia, Calif.). Wild type PKCδ vector is constructed from wild type PKCδ gene and pEGFP (Promega, Madison, Wis.). Dominant negative PKCδ vector is constructed from PKCδ gene mutated at a 376th amino acid residue (threonine) and pEGFP (Promega, Madison, Wis.) This threonine residue is located in ATP-binding domain of protein kinase Cδ, and therefore essential for any kinase reaction of the protein so that this mutant protein supposedly function as dominant negative. As a control we used pEGFP-N3 vector was used. These vectors contain green fluorescent protein (GFP) gene to be used as a transfection marker. The vectors are kind gifts from Dr. Yuspa (National Institutes of Health, Bethesda, Md.) (88). Twenty four hours after transfection, the cells were treated with M4N, Rottlerin, or Ly294002. Then 24 hrs after this treatment with these reagents, the cells were fixed with 10% formaldehyde in phosphate buffered saline without calcium and magnesium (PBS (−)). The cells were then incubated with rabbit anti-GFP antibody (MBL International, Woburn, Mass.) followed by treatment with anti-rabbit IgG antibody conjugated with fluorescein (Promega, Madison, Wis.). TUNEL staining was conducted by using TUNEL apoptosis detection kit (Upstate, Temecula, Calif.) except for using Streptavidin-Alexa Fluor 568 (Molecular Probes, Eugene, Oreg.) instead of Avidine-Rhodamine contained in the kit. Cell death was evaluated by dividing the number of TUNEL-positive cells among the cells positive with anti-GFP staining by the number of these GFP-positive cells.

HIF [4] = assay: Western blotting of HIF in 4T1 cells; type: cell-based, mouse; details: 4T1, 5 hrs
Description: as §2

PKCδ [5] = assay: Western blotting of total PKCδ and phosphor-PKCδ (Thr505) in 67NR cells; type: cell-based, mouse; details: 5 hrs, M4N 80 μM, Ro 5 μM, Ly 20 μM, Des 150 μM
Description: as §2, with “The” for “Western blotting: After cells had been grown in 25 mm^2 flasks and treated with reagents, the cells were washed with PBS (−) three times and suspended in RIP A buffer (150 mM NaCl, 50 mM Tris-HCl (pH 8,0), 0.1% SDS, 1% NP40, and 0.5% deoxycholate) supplemented with protease inhibitor cocktail (Calbiochem, San Diego, Calif.). The”

67NR cells [6] = assay: TUNEL apoptosis assay in 67NR cells; type: cell-based, mouse
Description: as §3, §4

PKCδ [7] = assay: Western blotting of total PKCδ and phosphor-PKCδ (Thr505) in 4T1 cells; type: cell-based, mouse; details: 4T1, 5 hrs; M4N 80 μM, Ro 5 μM, Ly 20 μM, Des 150 μM
Description: as §2, with “The” for “Western blotting: After cells had been grown in 25 mm^2 flasks and treated with reagents, the cells were washed with PBS (−) three times and suspended in RIP A buffer (150 mM NaCl, 50 mM Tris-HCl (pH 8,0), 0.1% SDS, 1% NP40, and 0.5% deoxycholate) supplemented with protease inhibitor cocktail (Calbiochem, San Diego, Calif.). The”

HIF [8] = assay: Western blotting of HIF in 67NR cells; type: cell-based, mouse; details: 5 hrs
Description: as §2

[9] = test system: LNCaP human prostate cancer cells; type: cell-based; details: for effect on TUNEL-positive cell death induced by M4N: 24 hrs
Description: as §3, §4

LNCaP tumors = assay: Nude mice orthotropically implanted with LNCaP tumors, about eight times tumor volume, treatment from day 3; type: in vivo, mouse
Description: Surgical orthotropic implantation of LNCaP tumors: LNCaP cells were grown as described above. Cells growing subconfluently were collected and resuspended into the tissue culture medium without fetal bovine serum and antibiotics. After counting the number of the cells, the cell concentration was adjusted using the same medium. After 20 μl of the medium containing a selected number of cancer cells (about 5×10^7 cells) had been mixed together with the same volume of Matrigel (BD science, Bedford, Mass.), the combined solution was injected into the skin of nude mice. […] The tumor tissue extracted from the skin was excised into pieces of about 2 mm diameter. After nude mice were anesthetized by 2,2,2-Tribromoethanol (Aldrich Chemical Co. Inc., Milwaukee, Wis.), a small incision was made at the abdomen of each mouse and a tumor tissue piece was implanted in the neighbor of the prostate of each mouse. Eight days after the operation, the injection of drugs was initiated, and the drugs were injected intravenously every day for the indicated periods
As in the previous experiment (FIGS. 9 to 13), in this study we administered M4N, Ly, Ro, Etoposide, or Rapamycin to mice intravenously using CPE (25/30) solvent system (87). […] However, in this experiment we implanted about eight times the volume of tumors as in the previous experiments to detect the difference of efficacy of various combination treatments much faster. We started to treat the mice with combination treatments three days after the implantation instead of eight days, considering that the tumor volume is already large at the time of implantation in this experiment. This allows less time for possible metastasis to the transplanted tumors in this experiment than in the previous one.

4T1 cells [10] = assay: 4T1 tumor-bearing Balb/c mice (life-span, tumor size); type: in vivo, mouse; details: 5×10^4 cells, M4N 1 mg/shot, Rottlerin 100 μg/shot, three days a week from day 7
Description: (§5) Animals: Female Balb/e mice were obtained from Charles River Laboratories (Wilmington, Mass.). M4N and Rottlerin were dissolved into a solvent, CPE (25/30) solvent system supplied by Erimos Pharmaceutical, L.L.C. (Raleigh, N.C.) and injected into mice either intravenously or intraperitoneally, T-cell deficient male nude mice (nu/nu) were obtained from Charles River Laboratories (Wilmington, Mass.). M4N and Ly294002 were dissolved into a solvent, CPE (25/30) solvent system supplied by Erimos Pharmaceutical, L.L.C. (Raleigh, N.C.) and injected into mice intravenously.
(§6) Tumor inoculation: Either 4T1 or 67NR cells were grown as described above. Cells growing subconfluently were collected and resuspended into the tissue culture medium minus fetal bovine serum and antibiotics, After counting the number of the cells, the cell concentration was adjusted. Twenty μl of the solution containing a selected number of cancer cells (either 5×10^3 or 5×10^4 cells) was injected into each fat pad of a pair of mammary glands located close to lower limbs. Tumor size was measured by weighing tumors extracted from mouse cadavers.

caspase-9 = assay: Western blotting of caspase-9 cleavage in 67NR cells; type: cell-based, mouse; details: 5 hrs, Rottlerin 5 μM, M4N 80 μM
Description: as §2

[11] = test system: mitochondrial membrane potential; assay: Mitochondrial membrane potential; type: cell-based
PKCδ [12] = assay: Immunocytochemistry of PKCδ cellular localization in LNCaP cells; type: cell-based, human; details: 5 hrs
Description: as §1

[13] = test system: LNCaP human prostate cancer cells; assay: MTT cell growth assay in LNCaP cells; type: cell-based; details: 24 hrs, M4N 80 μM, Ro 5 μM, Ly 20 μM
Description: as §3
MTT assay: Cells were incubated in PBS (−) supplemented with 5% fetal calf serum and 0.5 mg/ml MTT, 3-(4,5-Dimethylthiazol-2-yl)-2,5-diphenyltetrazolium bromide (Sigma, Saint Louis, Mo.) for 2 hrs. After the incubation, the cells were dissolved in dimethyl sulfoxide and the color of the solutions was measured by a spectrophotometer at wavelengths of 540 and 690 nm. The values correlated with viable cell numbers were obtained by subtracting the optical density at 690 nm from that, at 540 nm.

67NR cells [14] = assay: 67NR tumor-bearing Balb/c mice (life-span); type: in vivo, mouse; details: 5×10^4 cells, M4N 1 mg/shot, Rottlerin 100 μg/shot, three days a week from day 8
Description: as §5, §6

[15] = 4T1, 24 hrs, with M4N 80 μM, Rottlerin 5 μM, Desferoxamine 150 μM
[16] = 26 hrs, with M4N 80 μM, Rottlerin 5 μM, Desferoxamine 150 μM

Compound: CC(=O)N(O)CCCCCNC(=O)CCC(=O)N(O)CCCCCNC(=O)CCC(=O)N(O)CCCCCN.CS(=O)(=O)O [Desferoxamine, Desferoxamine mesylate]
- cellular distribution / nuclear staining of total PKCδ (PKCδ [1]): did not modulate much nuclear staining
- nuclear staining for phosphor-PKCδ (Thr505) (PKCδ [1]): only moderately increased nuclear staining
- expression of phosphorylated PDK (Ser241), Akt (Ser473), PRAS40 (Thr246), Raf (Ser259), MEK (Ser217/221) [2]: not much effect
- effect on cell death induced by M4N (4T1 cells [3]; [15]): generally augmented cell death even more
- effect on cell death induced by M4N (4T1 cells [3]; 4T1, 48 hr, Desferoxamine 300 μM with M4N 80 μM): enhanced cell death induced by M4N
- HIF stabilization (HIF [4]): induced HIF stabilization
- amount of phosphorylated PKCδ at Thr505 (PKCδ [5]): induced phosphorylation
- effect on cell death induced by M4N (67NR cells [6]; [16]): generally augmented cell death even more
- effect on cell death induced by M4N (67NR cells [6]; 48 hr, Desferoxamine 300 μM with M4N 80 μM): enhanced cell death induced by M4N
- amount of phosphorylated PKCδ at Thr505 (PKCδ [7]): induced phosphorylation
- HIF stabilization (HIF [8]): induced HIF stabilization

Compound: O=C([O-])C(Cl)Cl.[Na+] [Dichloroacetate, Sodium Dichloroacetate]
- effect on TUNEL-positive cell death induced by M4N [9]: synergistically augmented TUNEL-positive cell death induced by M4N

Compound: COc1cc([C@@H]2c3cc4c(cc3[C@@H](O[C@@H]3O[C@@H]5CO[C@@H](C)O[C@H]5[C@H](O)[C@H]3O)[C@H]3COC(=O)[C@H]23)OCO4)cc(OC)c1O [Etoposide]
- effect on TUNEL-positive cell death induced by M4N [9]: synergistically augmented TUNEL-positive cell death induced by M4N
- mice with lung metastasis lesions (LNCaP tumors; combination groups at 80 days after tumor implantation): 3 out of 5
- time after implantation by which all mice died (LNCaP tumors; mouse, in vivo): ≤ 24 days

Compound: O=c1c(-c2ccc(O)cc2)coc2cc(O)cc(O)c12 [Genistein]
- effect on TUNEL-positive cell death induced by M4N with either Ro or Ly (4T1 cells [3]; 4T1, Genistein 50 μM, 28 hrs): significantly suppressed the cell death

Compound: CC(=O)c1c(O)c(C)c(O)c(Cc2c(O)c3c(c(C(=O)/C=C/c4ccccc4)c2O)OC(C)(C)C=C3)c1O [Rottlerin]
- life-span of 4T1-bearing mice (4T1 cells [10]): didn't extend the life-span
- cellular distribution / nuclear staining of total PKCδ (PKCδ [1]): did not change much
- nuclear staining for phosphor-PKCδ (Thr505) (PKCδ [1]): augmented staining
- TUNEL-positive cell death ([9]; 28 hrs, M4N 80 μM, Ro 5 μM, Ly 20 μM): has no effect
- effect on cell death induced by M4N ([9]; 28 hrs, with M4N 80 μM): synergistically augmented cell death induced by M4N
- cell death with M4N over a broad range of concentrations ([9]; different concentrations of drugs): induced cell death synergistically
- cytotoxicity alone ([9]; tissue culture): non-cytotoxic
- TUNEL-positive cell death (4T1 cells [3]; 4T1, 24 hrs, M4N 80 μM, Rottlerin 5 μM, Ly294002 20 μM): Neither Ro nor Ly alone induced TUNEL-positive cell death
- TUNEL-positive cell death with M4N in cells transfected with control vectors (4T1 cells [3]; 4T1, 24 hrs, control vector): induced cell death synergistically with M4N
- effect on cell death induced by M4N (4T1 cells [3]; [15]): greatly enhanced cell death induced by M4N
- amount of phosphorylated PKCδ at Thr505 (PKCδ [5]): induced phosphorylation
- caspase-9 activation (cleavage) (caspase-9): a small amount of caspase-9 is activated
- TUNEL-positive cell death with M4N in cells transfected with control vectors (67NR cells [6]; 24 hrs, control vector): induced cell death synergistically with M4N
- TUNEL-positive cell death (67NR cells [6]; 26 hrs, M4N 80 μM, Rottlerin 5 μM, Ly294002 20 μM): Neither Ro nor Ly alone induced TUNEL-positive cell death
- effect on cell death induced by M4N (67NR cells [6]; [16]): enhanced to some extent cell death induced by M4N
- amount of phosphorylated PKCδ at Thr505 (PKCδ [7]): induced phosphorylation
- depolarization of mitochondrial membrane potential [11]: depolarized mitochondrial membrane potential
- expression and nuclear level of total PKCδ (PKCδ [12]): Neither M4N, Ro, nor Ly treatment caused any remarkable change
- nuclear expression of phosphor-PKCδ (Thr507) (PKCδ [12]): augmented
- cell growth (MTT) [13]: suppressed cell growth to some extent
- life-span of 67NR-bearing mice (67NR cells [14]): didn't have much effect on the life-span

Compound: COC(=O)C[C@H](NC(=O)[C@H](C)NC(=O)[C@@H](NC(=O)OCc1ccccc1)C(C)C)C(=O)CF [zVAD, zVAD-fmk] (Cbz-Val-Ala-Asp(OMe)-CH2F)
- effect of pan-caspase inhibitor on drug-induced TUNEL-positive cell death (4T1 cells [3]; 4T1, zVAD 50 μM added 30 minutes before other drugs): didn't affect TUNEL-positive cell death
- effect of pan-caspase inhibitor on drug-induced TUNEL-positive cell death (67NR cells [6]; zVAD 50 μM, 42 hrs): didn't affect TUNEL-positive cell death
